Assay results published in publication PMC6789111, “Crossing the blood-brain-barrier with nanoligand drug carriers self-assembled from a phage display peptide” (Nature Communications, 2019).
Where two headings read alike, the source gives them in different places. Peptide text beside a SMILES is read from it. * marks the point of attachment. 5FAM = O=C1OC2(c3ccc(O)cc3Oc3cc(O)ccc32)c2ccc(C(=O)*)cc21

Experiments:
hCMEC/D3 cell monolayer = test: Transwell in vitro BBB model; type: cell-based, human
Protocol: For the construction of the in vitro BBB model, hCMEC/D3 cells were seeded on rat tail collagen-coated polycarbonate membranes (Transwell, No. 3401 Costar; Corning, Wiesbaden, Germany; 0.4 μm pore size; 1.13 cm^2 growth area) with a density of 100,000 cells cm^−2. Every three days the cell medium was change. In general after 7 days growth, the cells reached confluence. The transendothelial electrical resistance (TEER) and cell layer capacitance (CCL), which reflects the membrane surface area of the hCMEC/D3 cell monolayer, were measured using CellZscope system (NanoAnalytics, Münster, Germany). Cells with CCL values in the range of 0.5–5.0 μF cm^−2 indicate cell confluence and validate TEER values were selected for the transfer experiments. NLCs at different concentrations were introduced in to the apical side of the BBB model. The TEER values were measured during the incubation. After 24 h of incubation, the media from basal and apical sides were sampled and analysed for fluorescent measurement. CD31 and paracellular adherens (β-catenin) junctions were assessed by immunofluorescence labeling directly on the cell monolayer attached to the transwell membrane. Briefly, cells were fixed by 4% v/v paraformaldehyde for 10 min, rinsed and then permeabilised with 0.5% (v/v) Triton X-100 for 10 min. After rinsing samples were blocked by 5% w/v BSA for 1 h, followed by incubation with primary antibodies (rabbit polyclonal to CD31, rabbit polyclonal to anti-β-catenin) in 1% w/v BSA overnight at 4 °C. […] After rinsing, the red fluorescence from tight junction proteins was observed by a Leica AF6000LX microscope equipped with a 63 × objective using ×1.6 magnifications. […]
formation of multiple cell-layers was sometime observed from day 7 onward. […] TEER values and its corresponding capacitance were recorded after the introduction of peptide for 24 h. (d) & (e) Staining and quantification of endothelial cells (CD31) and adheren β-catenin markers confirming the presence of a functional tight junction before and after NLC ( 5 µM) challenge. […]

[1] = Blood clearance after intravenous injection; type: in vivo, ICR mice; conditions: Cy5.5 peptide i.v., Ave
Protocol: (§1) The final concentration of the peptide conjugate was 10 µM and that of siRNA was 48 nM based on blood volume calculation equivalent to 6% of the body weight. At different time points blood samples were collected via retro-orbital blood collection. For whole animal imaging system mice were anaesthetised with isoflurane and in vivo fluorescence images were taken (IVIS 200 Spectrum, USA), at different time points. At 4 h post administration, mice were sacrificed, and the liver, lungs, kidneys, spleen, pancreas and brain were collected and stored in liquid nitrogen. The organs were homogenised (FastPrep-24™ 5G Instrument, MP Biomedicals, USA) and the levels of peptide and siRNA were measured in a fluorescence spectrometer (Fluotime 300, Picoquant, Berlin, Germany) using a standard curve.

[2] = Brain level after intravenous injection; type: in vivo, ICR mice; conditions: for Brain level (% of injected dose): Cy5.5 peptide i.v., Ave
Protocol: as §1, with “At 4 h post administration, mice were sacrificed, and the liver, lungs, kidneys, spleen, pancreas and brain were collected and stored in liquid nitrogen.” left out

hCMEC/D3 cells = test: Uptake with internalisation inhibitors; conditions: 37 °C
Protocol: The medium was then removed and replaced with a fresh medium containing NLCs and the corresponding inhibitor. After 8 h of incubation at 37 °C, cells were washed three times with cell medium and analysed by FACS. Cell viability at the end of each experiment was >90% as determined by Trypan Blue exclusion test. The following inhibitors were used: 2-deoxy-D-glucose (1 mM)/sodium azide (1 mM) as energy-dependent inhibitors, worthmanin (10 μM) as macropinocytosis inhibitor, chloropromazine (30 μM) as clathrin-dependent endocytosis inhibitor, N-ethylmaleimide (5 μM) as caveolae-dependent endocytosis and transcytosis inhibitor and indomethacin (200 μM) as caveolae-dependent endocytosis inhibitor.

BACE1 = test: In vivo BACE1 silencing, Western blot; set-up: species or system ICR mice; conditions: for BACE1 expression level: 72 nM siRNA
Protocol: For in vivo BACE1 silencing, 20 ICR mice were randomly divided into five groups (4 mice in each group) and administrated intravenously with either 72 nM siControl/FAM-CGY or BACE1 siRNA (final concentration, 72 nM) or 72 nM siControl/FAM-CGY scramble peptide1 or 48 nM BACE1 siRNA/FAM-CGY or 72 nM BACE1 siRNA/FAM-CGY, respectively. The final concentration of peptide was 10 μM. […] The frozen brain tissues (80–90 mg) were homogenized in RIPA lysis buffer (Beyotime, China) and centrifuged at 18,000 × g, 4 °C for 15 min. Protein concentration of the supernatant was determined using the BCA Protein Assay Kit. Equal amounts of protein from each sample were loaded on SDS-PAGE gels (4–15%) for the determination with level of the target protein determined by Western blotting using the anti-BACE1 antibody (1:1000 dilution) and detected with HRP-Goat-anti-rabbit) IgG (H + L) secondary antibody (1:3000).

[3] = Blood count after intravenous injection; type: in vivo, ICR mice; conditions: mouse, in vivo, iv
Text: Supplementary Table 2. Blood count following intravenous injection of FAM-CGY NLCs in free form and complexed with siRNA
Samples WBC RBC HGB HCT MCV MCH MCHC PLT
WBC: white blood cell; RBC: red blood cell count; HGB: haemoglobin; HCT: haematocrit; MCV: mean corpuscular volume; MCH: mean corpuscular haemoglobin; MCHC: mean corpuscular
significance (*p < 0.05). The results are mean ± s.d. (n = 3 animals per group). The experiment was repeated twice with identical results. The siRNA represent BACE-1-specific siRNA. The
final concentration of the peptide conjugate was 10 µM and that of siRNA was 48 nM, based on blood volume calculation equivalent to 6% of the body weight. LPS = lipopolysaccharide.

| Compound | Blood level (% of injected dose) ([1]; 0.25 h) | Blood level (% of injected dose) ([1]; 0.50 h) | Blood level (% of injected dose) ([1]; 1.00 h) | Blood level (% of injected dose) ([1]; 4.00 h) | Blood level (% of injected dose) ([1]; 12.00 h) | Blood level (% of injected dose) ([1]; 24.00 h) | Brain level (% of injected dose) ([2]; 0.25 h) | Brain level (% of injected dose) ([2]; 0.50 h) | Brain level (% of injected dose) ([2]; 1.00 h) | Brain level (% of injected dose) ([2]; 4.00 h) | Brain level (% of injected dose) ([2]; 12.00 h) | Brain level (% of injected dose) ([2]; 24.00 h) | other results |
| --- | --- | --- | --- | --- | --- | --- | --- | --- | --- | --- | --- | --- | --- |
| O=C(O)c1ccc2c(c1)C(=O)OC21c2ccc(O)cc2Oc2cc(O)ccc21 [5-FAM, 5-carboxy-fluorescein, reference compound] |  |  |  |  |  |  |  |  |  |  |  |  | transport across the hCMEC/D3 monolayer (hCMEC/D3 cell monolayer): neither the fluorophor 5-FAM nor the scrambled peptide showed notable transport |
| CC[C@H](C)[C@H](NC(=O)[C@H](CC(N)=O)NC(=O)[C@H](Cc1c[nH]cn1)NC(=O)[C@@H](NC(=O)[C@@H]1CCCN1C(=O)[C@H](CCCNC(=N)N)NC(=O)[C@H](Cc1ccc(O)cc1)NC(=O)CNC(=O)[C@H](CS)NC(=O)c1ccc2c(c1)C(=O)OC21c2ccc(O)cc2Oc2cc(O)ccc21)C(C)C)C(=O)NCC(=O)N[C@@H](Cc1c[nH]cn1)C(=O)N[C@@H](Cc1c[nH]c2ccccc12)C(=O)N[C@@H](CCCNC(=N)N)C(=O)N[C@@H](C)C(=O)N1CCC[C@H]1C(=O)NCC(=O)O [FAM-CGY scrambled 1] (5FAM-CGYRPVHNIGHWRAPG-OH) |  |  |  |  |  |  |  |  |  |  |  |  | transport across the hCMEC/D3 monolayer (hCMEC/D3 cell monolayer; apical to basal, 24 h, fluorescence): neither the fluorophor 5-FAM nor the scrambled peptide showed notable transport |
| Cy5.5-CGYRPVHNIRGHWAPG | 77.38 % of injected dose | 31.74 % of injected dose | 14.16 % of injected dose | 12.22 % of injected dose | 6.13 % of injected dose | 1.31 % of injected dose | 2.16 % of injected dose | 3.71 % of injected dose | 5.40 % of injected dose | 5.73 % of injected dose | 3.72 % of injected dose | 1.71 % of injected dose | peak brain level ([2]; 4 h after i.v., corrected for the blood content): 5.7 % of the injected dose |
| Cy5.5- CGYRPVHNIGHWRAPG [Cy5.5-CGY scrambled 1] | 65.67 % of injected dose | 27.80 % of injected dose | 11.82 % of injected dose | 6.91 % of injected dose | 3.51 % of injected dose | 1.61 % of injected dose | 0.74 % of injected dose | 1.20 % of injected dose | 1.71 % of injected dose | 1.92 % of injected dose | 1.01 % of injected dose | 0.39 % of injected dose | brain accumulation ([2]; i.v., mice): poorly accumulates in the brain |
| Transferrin: Texas Red-labelled transferrin, TfR substrate, positive control [reference compound] |  |  |  |  |  |  |  |  |  |  |  |  | Mean flouresence (%), uptake vs Control (no inhibitor) (hCMEC/D3 cells; CPZ (chloropromazine 30 μM), 8 h, replicate 1): 55.06%; Mean flouresence (%), uptake vs Control (no inhibitor) (hCMEC/D3 cells; CPZ (chloropromazine 30 μM), 8 h, replicate 2): 58.26%; Mean flouresence (%), uptake vs Control (no inhibitor) (hCMEC/D3 cells; CPZ (chloropromazine 30 μM), 8 h, replicate 3): 48.74%; Mean flouresence (%), uptake vs Control (no inhibitor) (hCMEC/D3 cells; DOG+NaN3 (1 mM/1 mM), 8 h, replicate 2): 38.57%; Mean flouresence (%), uptake vs Control (no inhibitor) (hCMEC/D3 cells; DOG+NaN3 (1 mM/1 mM), 8 h, replicate 3): 34.62%; Mean flouresence (%), uptake vs Control (no inhibitor) (hCMEC/D3 cells; DOG+NaN3 (2-deoxy-D-glucose 1 mM/sodium azide 1 mM), 8 h, replicate 1): 42.26%; Mean flouresence (%), uptake vs Control (no inhibitor) (hCMEC/D3 cells; IMC (indomethacin 200 μM), 1 h pre-treatment + 8 h, FACS, FAM-CGY NLC 5 µM or Texas Red-transferrin 5 µg per well, replicate 1): 102.05%; Mean flouresence (%), uptake vs Control (no inhibitor) (hCMEC/D3 cells; IMC (indomethacin 200 μM), 8 h, replicate 2): 90.27%; Mean flouresence (%), uptake vs Control (no inhibitor) (hCMEC/D3 cells; NEM (N-ethylmaleimide 5 μM), 8 h, replicate 1): 86.23%; Mean flouresence (%), uptake vs Control (no inhibitor) (hCMEC/D3 cells; NEM (N-ethylmaleimide 5 μM), 8 h, replicate 2): 95.58%; Mean flouresence (%), uptake vs Control (no inhibitor) (hCMEC/D3 cells; NEM (N-ethylmaleimide 5 μM), 8 h, replicate 3): 86.57%; Mean flouresence (%), uptake vs Control (no inhibitor) (hCMEC/D3 cells; WOR (worthmanin 10 μM), 8 h, replicate 1): 112.26%; Mean flouresence (%), uptake vs Control (no inhibitor) (hCMEC/D3 cells; WOR (worthmanin 10 μM), 8 h, replicate 2): 98.26%; Mean flouresence (%), uptake vs Control (no inhibitor) (hCMEC/D3 cells; WOR (worthmanin 10 μM), 8 h, replicate 3): 108.61% |
| siBACE1: sense 5′-GCUUUGUGGAGAUGGUGGATT-3′, antisense 5′-UCCACCAUCUCCACAAAGCTT-3′; siRNA of Supplementary Table 2 (chemistry not given here) |  |  |  |  |  |  |  |  |  |  |  |  | BACE1 expression level (BACE1; 48 h after i.v., siControl = 100.00, Ave.): 101.87; BACE1 expression level (BACE1; 48 h after i.v., siControl = 100.00, experiment 2): 94.53; BACE1 expression level (BACE1; 48 h after i.v., siControl = 100.00, experiment 3): 102.52; BACE1 expression level (BACE1; peptide 10 μM where present, single i.v., 48 h, FAM-CGY+72 nM siControl = 100.00, experiment 1): 108.56; pharmacological activity in hippocampus (BACE1; i.v. BACE1 siRNA in free form or with FAM-SP1): no pharmacological activity; WBC [3]: 4.54±0.30 (×109)L-1 |
